Reference: patent US4103008A, “7[2(2,3 Dioxopiperazin-1-yl-carbonylamino)substituted 2 phenylacetamido]-3-2'-thiadiazolyl cephalosporanic acid derivatives” (priority 1976, dated 1978)
Converted amounts (≈) assume the structure as drawn. Read-outs that look alike come from different tables or passages of the source.

Experiments:
Proteus morganii C73-23 = assay: In vitro antibacterial activity (MIC); assay type: cell-based; conditions: Morganella morganii, C7323
[1] = tested on: Shigella dysenteriae shigae; assay: microbe, parasite or virus in culture; assay type: cell-based
Escherichia coli C 73-1 = assay: In vitro antibacterial activity (MIC); assay type: cell-based; conditions: C731
[2] = tested on: Streptococcus faecalis ATCC 8043; assay: In vitro antibacterial activity (MIC); assay type: cell-based; conditions: Enterococcus faecalis, ATCC8043
[3] = tested on: Enterobacter strain C73-17; assay: In vitro antibacterial activity (MIC); assay type: cell-based; conditions: C7317
[4] = tested on: Bacillus substilis ATCC 6633; assay: In vitro antibacterial activity (MIC); assay type: cell-based; conditions: ATCC6633
[5] = tested on: Pseudomonas aerugenosa E 2 strain; assay: ED50 in Pseudomonas infection in mice; assay type: in vivo; conditions: ICR-JCL mouse, male, 20g; P. aerugenosa E 2 3.6 × 10^4 intraperitoneal; compound intramuscular after 2 hrs.; ED50 after 7 days; sodium salts
Text: (§1) Given below are the test results of in vitro antibacterial activity studies, serum concentrations and accumulative urinary excretions in rabbits and the protecting effects in mice, of some representative compounds of the invention.
(§2) The compounds used in the tests are shown in the following Table 1, but all of these compounds are in the form of the sodium salt.
Pseudomonas aerugenosa E 2 strain (3.6 × 10^4) was intraperitonealy injected to each group of 10 of ICR-JCL mouse (male, 20g). After 2 hrs., each of the test compounds was intramuscularly administered to the infected mice and the ED50 values were measured after 7 days.

Escherichia coli C 73-4 = assay: In vitro antibacterial activity (MIC); assay type: cell-based; conditions: C734
[6] = tested on: Vibrio parahaemolyticus K - 3; assay: In vitro antibacterial activity (MIC); assay type: cell-based; conditions: K3
[7] = tested on: Pseudomonas strain C73-83; assay: In vitro antibacterial activity (MIC); assay type: cell-based; conditions: C7383
Text: as §1, §2

[8] = tested on: Salmonella strain C 73-30; assay: In vitro antibacterial activity (MIC); assay type: cell-based; conditions: C7330
Text: as §1, §2

Salmonella strain C73-1 = assay: In vitro antibacterial activity (MIC); assay type: cell-based; conditions: C731
Text: as §1, §2

Serratia strain No. 2 = assay: In vitro antibacterial activity (MIC); assay type: cell-based
[9] = tested on: Staphylococcus aureus FDA 209NIH, P-J C-1; assay: In vitro antibacterial activity (MIC); assay type: cell-based
[10] = tested on: Pseudomonas strain C73-63; assay: In vitro antibacterial activity (MIC); assay type: cell-based; conditions: C7363
[11] = Serum concentration and accumulative urinary excretion in rabbit; conditions: in vivo, im; for concentration at 0.5 h: after 30 mins.
Experimental: as §1, §2
Each of the test compounds (20 mg/kg) was intramuscularly administered to one group of 3 rabbits, and the amounts of antibiotics were measured by a conventional method, using Sarcina lutea.

[12] = tested on: Vibrio parahaemolyticus K - 5; assay: In vitro antibacterial activity (MIC); assay type: cell-based; conditions: K5
Proteus morganii kono = assay: In vitro antibacterial activity (MIC); assay type: cell-based; conditions: Morganella morganii
[13] = tested on: Pseudomonas aeruginosa C73-2; assay: In vitro antibacterial activity (MIC); assay type: cell-based; conditions: C732
Klebsilla pneumoniae = assay: In vitro antibacterial activity (MIC); assay type: cell-based
[14] = tested on: Salmonella enteritidis No. 11; assay: In vitro antibacterial activity (MIC); assay type: cell-based; conditions: Salmonella enterica
Serratia strain No. 1 = assay: In vitro antibacterial activity (MIC); assay type: cell-based
[15] = Proteus morganii C73-23, in vitro, sodium salts, read-out: MIC
[16] = Escherichia coli C 73-1, in vitro, sodium salts, read-out: MIC
[17] = Streptococcus faecalis ATCC 8043, in vitro, sodium salts, read-out: MIC
[18] = Enterobacter strain C73-17, in vitro, sodium salts, read-out: MIC
[19] = Bacillus substilis ATCC 6633, in vitro, sodium salts, read-out: MIC
[20] = Escherichia coli C 73-4, in vitro, sodium salts, read-out: MIC
[21] = Vibrio parahaemolyticus K - 3, in vitro, sodium salts, read-out: MIC
[22] = Pseudomonas strain C73-83, in vitro, sodium salts, read-out: MIC
[23] = Salmonella strain C 73-30, in vitro, sodium salts, read-out: MIC
[24] = Salmonella strain C73-1, in vitro, sodium salts, read-out: MIC
[25] = Serratia strain No. 2, in vitro, sodium salts, read-out: MIC
[26] = Staphylococcus aureus FDA 209NIH, P-J C-1, in vitro, sodium salts, read-out: MIC
[27] = Pseudomonas strain C73-63, in vitro, sodium salts, read-out: MIC
[28] = 20 mg/kg intramuscular, sodium salts, Sarcina lutea assay
[29] = Vibrio parahaemolyticus K - 5, in vitro, sodium salts, read-out: MIC
[30] = Proteus morganii kono, in vitro, sodium salts, read-out: MIC
[31] = Pseudomonas aeruginosa C73-2, in vitro, sodium salts, read-out: MIC
[32] = Klebsilla pneumoniae, in vitro, sodium salts, read-out: MIC
[33] = Salmonella enteritidis No. 11, in vitro, sodium salts, read-out: MIC
[34] = Serratia strain No. 1, in vitro, sodium salts, read-out: MIC

CCOC(=O)Oc1ccc([C@@H](NC(=O)N2CCN(CC)C(=O)C2=O)C(=O)NC2C(=O)N3C(C(=O)O)=C(CSc4nncs4)CS[C@H]23)cc1 (single isomer, unassigned) [V, 7-[D(-)-α-(4-ethyl-2,3-dioxopiperazin-1-yl-carbonylamino)-p-ethoxycarbonyloxyphenylacetamido]-3-(1,3,4-thiadiazol-2-yl-thiomethyl)-3-cephem-4-carboxylic acid]
MIC (Proteus morganii C73-23; [15]): 12.5 µg/mL | MIC [1]: 0.78 µg/mL (≈ 1.08 µM) | MIC (Escherichia coli C 73-1; [16]): 1.56 µg/mL | MIC [2, 17]: 12.5 µg/mL | MIC [3, 18]: 3.13 µg/mL | MIC [4, 19]: 0.78 µg/mL | ED50 in Pseudomonas infection in mice [5]: 1.0 mg/mouse | MIC (Escherichia coli C 73-4; [20]): 3.13 µg/mL | MIC [6, 21]: 6.25 µg/mL | MIC [7, 22]: 25 µg/mL | MIC [8, 23]: 1.56 µg/mL | MIC (Salmonella strain C73-1; [24]): 1.56 µg/mL | MIC (Serratia strain No. 2; [25]): 3.13 µg/mL | MIC [9, 26]: 0.39 µg/mL | MIC [10, 27]: 6.25 µg/mL | dose excreted at 6 h ([11]; 20 mg/kg): 24.1% | concentration at 0.5 h [11, 28]: 43000 ng/mL | MIC [12, 29]: 6.25 µg/mL | MIC (Proteus morganii kono; [30]): 3.13 µg/mL | MIC [13, 31]: 6.25 µg/mL | MIC (Klebsilla pneumoniae; [32]): 0.39 µg/mL | MIC [14, 33]: 0.2 µg/mL | MIC (Serratia strain No. 1; [34]): 3.13 µg/mL

CCOC(=O)Oc1ccc([C@@H](NC(=O)N2CCN(CC)C(=O)C2=O)C(=O)NC2C(=O)N3C(C(=O)O)=C(CSc4nncs4)CS[C@H]23)cc1Cl (single isomer, unassigned) [VI, 7-[D(-)-α-(4-ethyl-2,3-dioxopiperazin-1-yl-carbonylamino)-m-chloro-p-ethoxycarbonyloxyphenylacetamido]-3-(1,3,4-thiadiazol-2-yl-thiomethyl)-3-cephem-4-carboxylic acid]
MIC (Proteus morganii C73-23; [15]): 12.5 µg/mL | MIC [1]: 1.56 µg/mL (≈ 2.07 µM) | MIC (Escherichia coli C 73-1; Escherichia coli): 1.56 µg/mL (≈ 2.07 µM) | MIC [2, 17]: 6.25 µg/mL | MIC ([3]; Enterobacter): 1.56 µg/mL (≈ 2.07 µM) | MIC [4, 19]: 0.39 µg/mL | ED50 in Pseudomonas infection in mice [5]: 0.8 mg/mouse | MIC (Escherichia coli C 73-4; [20]): 3.13 µg/mL | MIC [6, 21]: 12.5 µg/mL | MIC [7, 22]: 12.5 µg/mL | MIC [8, 23]: 3.13 µg/mL | MIC (Salmonella strain C73-1; [24]): 3.13 µg/mL | MIC (Serratia strain No. 2; [25]): 6.25 µg/mL | MIC [9, 26]: 0.39 µg/mL | MIC [10, 27]: 3.13 µg/mL | dose excreted at 6 h ([11]; 20 mg/kg): 17.4% | concentration at 0.5 h [11, 28]: 19400 ng/mL | MIC [12, 29]: 12.5 µg/mL | MIC (Proteus morganii kono; [30]): 3.13 µg/mL | MIC [13, 31]: 12.5 µg/mL | MIC (Klebsilla pneumoniae): 1.56 µg/mL (≈ 2.07 µM) | MIC [14, 33]: 0.2 µg/mL | MIC (Serratia strain No. 1; [34]): 6.25 µg/mL

CCN1CCN(C(=O)N[C@@H](C(=O)NC2C(=O)N3C(C(=O)O)=C(CSc4nncs4)CS[C@H]23)c2ccc(OC(C)=O)c(Cl)c2)C(=O)C1=O (single isomer, unassigned) [IV, 7-[D(-)-α-(4-ethyl-2,3-dioxopiperazin-1-yl-carbonylamino)-m-chloro-p-acetoxyphenylacetamido]-3-(1,3,4-thiadiazol-2-yl-thiomethyl)-3-cephem-4-carboxylic acid]
MIC (Proteus morganii C73-23; [15]): 12.5 µg/mL | MIC [1]: 0.39 µg/mL (≈ 0.539 µM) | MIC (Escherichia coli C 73-1; [16]): 6.25 µg/mL | MIC [2, 17]: 1.56 µg/mL | MIC [3, 18]: 25 µg/mL | MIC [4, 19]: 6.25 µg/mL | ED50 in Pseudomonas infection in mice [5]: 1.8 mg/mouse | MIC (Escherichia coli C 73-4; [20]): 6.25 µg/mL | MIC [6, 21]: 12.5 µg/mL | MIC [7, 22]: 25 µg/mL | MIC [8, 23]: 1.56 µg/mL | MIC (Salmonella strain C73-1; [24]): 1.56 µg/mL | MIC (Serratia strain No. 2; [25]): 3.13 µg/mL | MIC [9, 26]: 6.25 µg/mL | MIC [10, 27]: 3.13 µg/mL | dose excreted at 6 h ([11]; 20 mg/kg): 27% | concentration at 0.5 h [11, 28]: 34900 ng/mL | MIC [12, 29]: 12.5 µg/mL | MIC (Proteus morganii kono; [30]): 3.13 µg/mL | MIC [13, 31]: 3.13 µg/mL | MIC (Klebsilla pneumoniae; [32]): 0.78 µg/mL | MIC [14, 33]: 3.13 µg/mL | MIC (Serratia strain No. 1; [34]): 3.13 µg/mL

CCN1CCN(C(=O)N[C@@H](C(=O)NC2C(=O)N3C(C(=O)O)=C(CSc4nncs4)CS[C@H]23)c2ccc(O)c(Cl)c2)C(=O)C1=O (single isomer, unassigned) [II, 7-[D(-)-α-(4-ethyl-2,3-dioxopiperazin-1-yl-carbonylamino)-m-chloro-p-hydroxyphenylacetamido]-3-(1,3,4-thiadiazol-2-yl-thiomethyl)-3-cephem-4-carboxylic acid]
MIC (Proteus morganii C73-23; [15]): 6.25 µg/mL | MIC [1]: < 0.05 µg/mL | MIC (Escherichia coli C 73-1; [16]): 1.56 µg/mL | MIC [2, 17]: 1.56 µg/mL | MIC [3, 18]: 12.5 µg/mL | MIC [4, 19]: 0.39 µg/mL | ED50 in Pseudomonas infection in mice [5]: 2.2 mg/mouse | MIC (Escherichia coli C 73-4; [20]): 1.56 µg/mL | MIC [6, 21]: 12.5 µg/mL | MIC [7, 22]: 12.5 µg/mL | MIC [8, 23]: 1.56 µg/mL | MIC (Salmonella strain C73-1; [24]): 0.78 µg/mL | MIC (Serratia strain No. 2; [25]): 6.25 µg/mL | MIC [9, 26]: 0.2 µg/mL | MIC [10, 27]: 1.56 µg/mL | dose excreted at 6 h ([11]; 20 mg/kg): 24% | concentration at 0.5 h [11, 28]: 28800 ng/mL | MIC [12, 29]: 12.5 µg/mL | MIC (Proteus morganii kono; [30]): 3.13 µg/mL | MIC [13, 31]: 6.25 µg/mL | MIC (Klebsilla pneumoniae; [32]): 0.78 µg/mL | MIC [14, 33]: < 0.05 µg/mL | MIC (Serratia strain No. 1; [34]): 3.13 µg/mL

CCN1CCN(C(=O)N[C@@H](C(=O)NC2C(=O)N3C(C(=O)[O-])=C(CSc4nncs4)CS[C@H]23)c2ccc(O)cc2)C(=O)C1=O.[Na+] (single isomer, unassigned)
MIC (Proteus morganii C73-23): 6.25 µg/mL | MIC [1]: < 0.05 µg/mL | MIC (Escherichia coli C 73-1; Escherichia coli): 1.56 µg/mL | MIC [2]: 0.78 µg/mL | MIC ([3]; Enterobacter): 25 µg/mL | MIC ([4]; Bacillus): 0.78 µg/mL | ED50 in Pseudomonas infection in mice [5]: 3.0 mg/mouse | MIC (Escherichia coli C 73-4; Escherichia coli): 0.39 µg/mL | MIC ([6]; Vibrio parahaemolyticus): 6.25 µg/mL | MIC ([7]; Pseudomonas): 25 µg/mL | MIC ([8]; Salmonella): 0.39 µg/mL | MIC (Salmonella strain C73-1; Salmonella): 0.39 µg/mL | MIC (Serratia strain No. 2; Serratia, NO.2): 3.13 µg/mL | MIC ([9]; Staphylococcus aureus): 0.39 µg/mL | MIC ([10]; Pseudomonas): 1.56 µg/mL | concentration at 0.5 h [11, 28]: 52800 ng/mL | dose excreted at 6 h ([11]; 20 mg/kg intramuscular, after 6 hrs., sodium salts, Sarcina lutea assay, read-out: ACCUMULATIVE URINARY EXCRETION): 33.4% | MIC ([12]; Vibrio parahaemolyticus): 6.25 µg/mL | MIC (Proteus morganii kono): 1.56 µg/mL | MIC ([13]; Pseudomonas aeruginosa): 6.25 µg/mL | MIC (Klebsilla pneumoniae): 0.1 µg/mL | MIC ([14]; ENTERITIDIS): < 0.05 µg/mL | MIC (Serratia strain No. 1; Serratia, NO.1): 3.13 µg/mL
